# Data published in publication PMC8998618, “A Pharmacokinetic and Metabolism Study of the TRPC6 Inhibitor SH045 in Mice by LC-MS/MS” (International Journal of Molecular Sciences, 2022).
# Test system: cytochrome P450 isoenzymes
# Experiment: cytochrome P450 isoenzyme inhibition with isoform-specific inhibitors in liver microsomes
# Assay type: in vitro ADME, mouse and human
# Conditions: MLM and HLM, 2 µM SH045, isoform-specific inhibitors
# Procedure: To determine possible metabolizing pathways of SH045 in MLM and HLM, an in vitro inhibition approach was performed with CYP-isoform specific inhibitors. […]
# homogenates, and shaken vigorousl y for 5 min. 40 µL urine was mixed with 4 µL of IS and extracted with 156 µL pure […]
# All microsome incubations were stopped with 1 mL ice -cold ACN containing 5 µg/mL IS, vortexed for 1 min and cooled at -20 °C for 10 min.
# After centrifugation of mixtures from tissue or microsomal incubations for 15 min at 4 °C, the supernatants were filtered through a 0.2 -µm-pore-size syringe filter and stored in the autosampler at 6 °C until analysis by LC-MS/MS as […]
# SM5 Tissue binding of SH045
# The tissue binding of SH045 was analyzed exemplarily in lung, liver and kidney homogenate using ultrafiltration [5]. […] 20 µL of the mixture and the filtrate were analyzed for SH045. […]
# Testosterone (10 µM in ACN/DPBS 2/3, v/v) instead of SH045 was used as positive control and analyzed by an appropriate HPLC method with UV detection.
# Negative controls contained either no NADPH, no MLM or HLM or none of them. The overall velocity (v) of degradation was calculated from altered SH045 concentration (∆c) obtained from reduction peak area ratio of SH045 as: v = ∆c / incubation time × concentration of enzyme × volume (nmol/ min × mg). […]
smiles,measurement,value
"C=C[C@@](C)(O)CC[C@H]1C(=C)C[C@H](OC(=O)NC)[C@H]2C(C)(C)CCC[C@]12C [SH045, (1S,4S,4aR,8aS)-4-((S)-3-Hydroxy-3-methylpent-4-en-1-yl)-4a,8,8-trimethyl-3-methylenedecahydronaphthalen-1-yl methylcarbamate]",cytochrome P450 isoenzymes metabolizing SH045,substrate of CYP3A4 and CYP2A6
